Several values for one entry are separate records, joined by “and”; a condition that tells them apart may be missing. Equal entries are not always repeated.
System: NCI-H1341 complex spheroids, percent test/control
Test: Anticancer human tumor NCI-H1341 cell line growth inhibition [AhR];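 also: spheroids exposed to agents for seven days before readout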
Conditions: for viability, T/C: stronger effect = lower value
In short: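 Spheroids combined tumor cells with HUVEC endothelial cells and human MSCs as stroma. AhR antagonists were paired with standard or investigational drugs, each dosed in half-log steps down from near clinical Cmax, or from 10 microM where Cmax was unknown.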

[1] = curve of first compound, second compound 0.1 µM
[2] = curve of first compound, second compound 0.316 µM
[3] = curve of first compound, second compound 1 µM
[4] = curve of first compound, second compound 3.16 µM
[5] = curve of first compound, second compound 10 µM
[6] = second compound 0.1 µM, first compound 0.0316 µM
[7] = second compound 0.1 µM, first compound 0.1 µM
[8] = second compound 0.1 µM, first compound 0.316 µM
[9] = second compound 0.1 µM, first compound 1 µM
[10] = second compound 0.1 µM, first compound 3.16 µM
[11] = second compound 0.1 µM, first compound 10 µM
[12] = second compound 0.316 µM, first compound 0.0316 µM
[13] = second compound 0.316 µM, first compound 0.1 µM
[14] = second compound 0.316 µM, first compound 0.316 µM
[15] = second compound 0.316 µM, first compound 1 µM
[16] = second compound 0.316 µM, first compound 3.16 µM
[17] = second compound 0.316 µM, first compound 10 µM
[18] = second compound 1 µM, first compound 0.0316 µM
[19] = second compound 1 µM, first compound 0.1 µM
[20] = second compound 1 µM, first compound 0.316 µM
[21] = second compound 1 µM, first compound 1 µM
[22] = second compound 1 µM, first compound 3.16 µM
[23] = second compound 1 µM, first compound 10 µM
[24] = second compound 3.16 µM, first compound 0.0316 µM
[25] = second compound 3.16 µM, first compound 0.1 µM
[26] = second compound 3.16 µM, first compound 0.316 µM
[27] = second compound 3.16 µM, first compound 1 µM
[28] = second compound 3.16 µM, first compound 3.16 µM
[29] = second compound 3.16 µM, first compound 10 µM
[30] = second compound 10 µM, first compound 0.0316 µM
[31] = second compound 10 µM, first compound 0.1 µM
[32] = second compound 10 µM, first compound 0.316 µM
[33] = second compound 10 µM, first compound 1 µM
[34] = second compound 10 µM, first compound 3.16 µM
[35] = second compound 10 µM, first compound 10 µM

In the case of NS(=O)(=O)OCC1CC(n2ccc3c(NC4CCc5ccccc54)ncnc32)CC1O (configuration not stated) + CC(CO)NC(=O)c1cc(-c2ccc(Cl)cc2)nn(-c2cnn(C)c2)c1=O, the IC50 [1] is reported as under 31.6 nM, the IC50 [2] is reported as under 31.6 nM and the IC50 [3] is reported as under 31.6 nM. The IC50 [4] was under 31.6 nM, the IC50 [5] was under 31.6 nM and the viability, T/C [6] was 33%. The viability, T/C [7] was 28%, the viability, T/C [8] was 11% and the viability, T/C [9] was 5.48%. For the same molecule, the viability, T/C [10] was 5.17%, the viability, T/C [11] was 3.34% and the viability, T/C [12] was 37.6%. For the same molecule, the viability, T/C [13] was 28.2%, the viability, T/C [14] was 13.5% and the viability, T/C [15] was 6.9%. It also gave a viability, T/C [16] of 3.38%, a viability, T/C [17] of 3.76% and a viability, T/C [18] of 39.7%. It also gave a viability, T/C [19] of 31.2%, a viability, T/C [20] of 13.1% and a viability, T/C [21] of 6.82%. The viability, T/C [22] was 4.46%, the viability, T/C [23] was 3.84% and the viability, T/C [24] was 32.1%. For the same molecule, the viability, T/C [25] was 27.6%, the viability, T/C [26] was 14.8% and the viability, T/C [27] was 7.34%. For the same molecule, the viability, T/C [28] was 5.49%, the viability, T/C [29] was 4.2% and the viability, T/C [30] was 29.1%. For the same molecule, the viability, T/C [31] was 23.1%, the viability, T/C [32] was 13.8% and the viability, T/C [33] was 7.32%. The viability, T/C [34] was 5.1% and the viability, T/C [35] was 2.95%.
For COc1ccc([C@@H](O)c2cc(-c3ncnc4cc(N5CCOCC5)ccc34)c(F)cc2Cl)nn1, the viability, T/C (compound 0.0316 µM) was 97.1% and 88.2% and 96%, the viability, T/C (compound 0.1 µM) was 96.2% and 93.7% and 96.8% and the viability, T/C (compound 0.316 µM) was 91.2% and 79.9% and 87.8%. For the same molecule, the viability, T/C (compound 1 µM) was 63.1% and 57% and 71.2%, the viability, T/C (compound 3.16 µM) was 31.1% and 22.9% and 32.9% and the viability, T/C (compound 10 µM) was 4.6% and 6.65% and 8.33%. For the same molecule, the IC50 (curve of compound) was 1650 nM and 1260 nM and 1880 nM.
Nc1ccn(C2OC(CO)C(O)C2(F)F)c(=O)n1 (configuration not stated) + Cc1ccccc1N=Nc1ccc(NC(=O)c2ccnn2C)c(C)c1 was tested, and the IC50 [1] was under 31.6 nM, the IC50 [2] was under 31.6 nM and the IC50 [3] was under 31.6 nM. The IC50 [4] was under 31.6 nM, the IC50 [5] was under 31.6 nM and the viability, T/C [6] was 33.4%. It also gave a viability, T/C [7] of 38.5%, a viability, T/C [8] of 43.6% and a viability, T/C [9] of 34.7%. It also gave a viability, T/C [10] of 32.5%, a viability, T/C [11] of 34.7% and a viability, T/C [12] of 40.3%. The viability, T/C [13] was 38%, the viability, T/C [14] was 34.7% and the viability, T/C [15] was 39.6%. For the same molecule, the viability, T/C [16] was 31.6%, the viability, T/C [17] was 38.5% and the viability, T/C [18] was 43%. The viability, T/C [19] was 42.7%, the viability, T/C [20] was 35.5% and the viability, T/C [21] was 32.3%. It also gave a viability, T/C [22] of 31.1%, a viability, T/C [23] of 35.3% and a viability, T/C [24] of 45%. For the same molecule, the viability, T/C [25] was 38.5%, the viability, T/C [26] was 38.7% and the viability, T/C [27] was 32.3%. It also gave a viability, T/C [28] of 36.9%, a viability, T/C [29] of 32.5% and a viability, T/C [30] of 44.2%. It also gave a viability, T/C [31] of 40.4%, a viability, T/C [32] of 41.4% and a viability, T/C [33] of 34.9%. For the same molecule, the viability, T/C [34] was 29.7% and the viability, T/C [35] was 39.3%.

Reference: PubChem BioAssay AID1919014 (Molecular Pharmacology Branch, DTP, NCI, 2023)
